DBAASP
Converted amounts (≈) assume the structure as drawn. “And” between values parts separate entries of the source, which are not always exact repeats. Identical values can stand only once.

How the values were obtained:
Assay in all cases: ≥ marks a high value that may be exact or a test limit, other limits are often not marked, values filed in µg/mL are converted to µM
[1] = test system: Bacillus subtilis MTCC 14416
[2] = test system: Enterococcus faecalis ATCC 29212
Vibrio cholerae = test system: Vibrio cholerae
[3] = test system: Staphylococcus aureus ATCC 43300
Escherichia coli MG1655 = test system: Escherichia coli MG1655
[4] = test system: Staphylococcus aureus MTCC 9542
Xanthomonas citri = test system: Xanthomonas citri
[5] = test system: Sinorhizobium meliloti USDA 1002
Methylobacterium sp. = test system: Methylobacterium sp.
[6] = test system: Staphylococcus aureus SPM 101
Escherichia coli SPE 001 = test system: Escherichia coli SPE 001
[7] = test system: Escherichia coli DSM 1103
[8] = test system: Streptococcus pneumoniae DSM 11865
[9] = test system: Pseudomonas aeruginosa DSM 1128
[10] = test system: Klebsiella pneumoniae DSM 681
[11] = test system: Staphylococcus aureus ATCC 25923
[12] = test system: Pseudomonas syringae pv. tomato DC3000
Alternaria alternata = test system: Alternaria alternata
[13] = test system: Pectobacterium carotovorum subsp. carotovorum DSM 30168
Botrytis cinerea = test system: Botrytis cinerea
[14] = test system: Staphylococcus aureus 90857
Cladosporium herbarum = test system: Cladosporium herbarum
[15] = test system: Pseudomonas syringae pv. syringae DSM 10604
[16] = test system: Clavibacter michiganensis subsp. michiganensis DSM 46294
[17] = test system: Pseudomonas corrugata DSM 7228
[18] = test system: Xanthomonas vesicatoria DSM 50861
[19] = test system: Enterococcus casseliflavus
[20] = test system: Escherichia coli ATCC 27325
Enterococcus gallinarum = test system: Enterococcus gallinarum
[21] = test system: Salmonella typhimurium KCTC 2370
Staphylococcus aureus = test system: Staphylococcus aureus
[22] = test system: Bacillus subtilis KCTC 3038
Enterococcus faecium = test system: Enterococcus faecium
[23] = test system: Saccharomyces cerevisiae ATCC 44774

## CC[C@H](C)[C@H](NC(=O)[C@H](C)NC(=O)[C@H](CS)NC(=O)[C@H](Cc1ccccc1)NC(=O)[C@@H](NC(=O)[C@H](CCCCN)NC(=O)[C@@H]1CCCN1C(=O)[C@H](CC(C)C)NC(=O)[C@H](Cc1ccccc1)NC(=O)[C@H](CCCCN)NC(=O)[C@H](C)NC(=O)[C@H](C)NC(=O)[C@H](CCSC)NC(=O)CNC(=O)[C@H](C)NC(=O)[C@@H](NC(=O)[C@H](Cc1ccccc1)NC(=O)[C@@H]1CCCN1C(=O)[C@H](CC(C)C)NC(=O)[C@@H](N)Cc1ccccc1)[C@@H](C)CC)[C@@H](C)CC)C(=O)N[C@@H](CO)C(=O)N[C@@H](CCCCN)C(=O)N[C@@H](CCCCN)C(N)=O [FLPFIAGMAAKFLPKIFCAISKK]
[1]
  MIC: 9.83 µM (≈ 25 µg/mL)
[2]
  MIC: 9.83 µM (≈ 25 µg/mL)
Vibrio cholerae
  MIC: 9.83 µM (≈ 25 µg/mL)
[3]
  MIC: 2.46 µM (≈ 6.25 µg/mL)
Escherichia coli MG1655
  MIC: 7.87 µM (≈ 20 µg/mL)
[4]
  MIC: 9.83 µM (≈ 25 µg/mL)

## CC[C@H](C)[C@H](NC(=O)[C@H](C)NC(=O)CNC(=O)[C@H](Cc1ccccc1)NC(=O)[C@@H](NC(=O)[C@@H](N)CCCCN)[C@@H](C)CC)C(=O)N[C@@H](Cc1c[nH]c2ccccc12)C(=O)N1CCC[C@H]1C(=O)N[C@@H](CC(C)C)C(=O)N[C@@H](C)C(=O)N[C@@H](CC(C)C)C(=O)NCC(=O)N[C@@H](C)C(=O)N[C@@H](CC(C)C)C(=O)N[C@@H](CCCCN)C(=O)N[C@@H](CC(N)=O)C(=O)N[C@@H](CC(C)C)C(=O)N[C@H](C(=O)N[C@@H](CCCCN)C(=O)O)[C@@H](C)CC [KIFGAIWPLALGALKNLIK]
Xanthomonas citri
  MIC: 2 µM (≈ 4.13 µg/mL)
[5]
  MIC: 4 µM (≈ 8.27 µg/mL)
Methylobacterium sp.
  MIC: 4 µM (≈ 8.27 µg/mL)

## CC(C)C[C@H](NC(=O)[C@H](CCCCN)NC(=O)[C@H](CC(C)C)NC(=O)[C@H](CC(C)C)NC(=O)[C@H](CC(C)C)NC(=O)[C@H](CC(C)C)NC(=O)[C@H](CCCCN)NC(=O)[C@H](CC(C)C)NC(=O)[C@@H](N)CCCCN)C(=O)N[C@@H](CCCCN)C(N)=O [KLKLLLLKLK]
[6]
  MIC: 1.65 µM (≈ 2 µg/mL)
Escherichia coli SPE 001
  MIC: 26.5 µM (≈ 32 µg/mL)

## CC(C)C[C@H](NC(=O)[C@@H](NC(=O)[C@H](C)NC(=O)[C@H](Cc1c[nH]c2ccccc12)NC(=O)[C@H](CCCN=C(N)N)NC(=O)CNC(=O)CNC(=O)[C@H](CCCN=C(N)N)NC(=O)[C@@H](NC(=O)[C@H](CCCN=C(N)N)NC(=O)[C@H](Cc1c[nH]c2ccccc12)NC(=O)[C@H](Cc1ccc(O)cc1)NC(=O)[C@H](Cc1ccc(O)cc1)NC(=O)[C@H](CCCCN)NC(=O)[C@H](CCC(N)=O)NC(=O)[C@@H](N)CC(C)C)C(C)C)C(C)C)C(=O)N[C@@H](CO)C(=O)O [LQKYYWRVRGGRWAVLS]
[7]
  MIC: ≥ 140 µM
[8]
  MIC: ≥ 140 µM
[9]
  MIC: ≥ 140 µM
[10]
  MIC: ≥ 140 µM
[11]
  MIC: 70.1 µM (≈ 150 µg/mL)

## CC[C@H](C)[C@H](NC(=O)[C@H](CCCCN)NC(=O)[C@H](CCCCN)NC(=O)[C@H](CC(C)C)NC(=O)[C@H](Cc1ccccc1)NC(=O)[C@H](CCCN=C(N)N)NC(=O)[C@@H](N)CC(C)C)C(=O)N[C@@H](CC(C)C)C(=O)N[C@@H](CCCCN)C(=O)N[C@@H](Cc1cnc[nH]1)C(=O)N[C@@H](CC(C)C)C(=O)N[C@@H](Cc1ccccc1)C(N)=O [LRFLKKILKHLF]
[12]
  MIC: 6.43 µM (≈ 9.99 µg/mL)
Alternaria alternata
  MIC: ≥ 64.3 µM
[13]
  MIC: 12.9 µM (≈ 20 µg/mL)
Botrytis cinerea
  MIC: ≥ 64.3 µM
[14]
  MIC: 1.5 µM (≈ 2.33 µg/mL)
Cladosporium herbarum
  MIC: 6.43 µM (≈ 9.99 µg/mL)
[15]
  MIC: 6.43 µM (≈ 9.99 µg/mL)
[16]
  MIC: 6.43 µM (≈ 9.99 µg/mL)
[17]
  MIC: 12.9 µM (≈ 20 µg/mL)
[18]
  MIC: 3.21 µM (≈ 5 µg/mL)

## CC(C)[C@H](NC(=O)[C@H](CCCCN)NC(=O)[C@H](CCC(N)=O)NC(=O)[C@H](CCCCN)NC(=O)[C@@H](NC(=O)[C@@H](NC(=O)[C@H](CCC(N)=O)NC(=O)[C@@H](NC(=O)[C@@H](NC(=O)[C@@H]1CCCN1C(=O)[C@H](CCCN=C(N)N)NC(=O)[C@@H](NC(=O)[C@@H](NC(=O)[C@@H](N)CCCN=C(N)N)C(C)C)C(C)C)C(C)C)C(C)C)C(C)C)C(C)C)C(=O)N[C@@H](CCCN=C(N)N)C(=O)O [RVVRPVVQVVKQKVR]
[19]
  MIC: 1.12 µM (≈ 2 µg/mL)
[20]
  MIC: 17.9 µM and ≥ 35.8 µM
Enterococcus gallinarum
  MIC: ≥ 35.8 µM
[21]
  MIC: ≥ 35.8 µM
Staphylococcus aureus
  MIC: > 35.8 µM
[22]
  MIC: 8.94 µM (≈ 16 µg/mL)
[2]
  MIC: 4.47 µM (≈ 8 µg/mL)
Enterococcus faecium
  MIC: 2.23 µM (≈ 4 µg/mL)
[23]
  MIC: 1.12 µM (≈ 2 µg/mL)
